{
  "source": "patent US10004701B2",
  "about": "“Methods and compositions for treating infection” (UNIVERSITY OF ROCHESTER, priority 2012, dated 2018)",
  "assay_in_all_cases": "AK assay 384-well format, Prestwick library screening",
  "key": {"E. faecium": {"system": "E. faecium", "type": "cell-based, Enterococcus faecium"}, "[1]": {"system": "S. aureus strain USA300-0114", "type": "cell-based, Staphylococcus aureus"}, "K. pneumoniae": {"system": "K. pneumoniae", "type": "cell-based, Klebsiella pneumoniae"}, "[2]": {"system": "A. baumannii strain 98-37-09", "type": "cell-based, Acinetobacter baumannii"}, "P. aeruginosa": {"system": "P. aeruginosa", "type": "cell-based, Pseudomonas aeruginosa"}, "E. cloacae": {"system": "E. cloacae", "type": "cell-based, Enterobacter cloacae"}, "E. coli": {"system": "E. coli", "type": "cell-based, Escherichia coli"}, "[3]": {"settings": "50 μM final drug concentration, planktonic, cutoff for positive 3-fold increase"}, "[4]": {"settings": "50 μM final drug concentration, planktonic, cutoff for positive-scoring molecules 3-fold increase"}, "[5]": {"settings": "50 μM final drug concentration, cutoff for positive-scoring molecules 3-fold increase"}},
  "note": "Structures can show the parent of a compound that is named as a salt.",
  "data": [
    {"smiles": "CC(=C(CCO)SSCC1CCCO1)N(C=O)Cc1cnc(C)nc1N", "note": "(stereo in doubt) [Fursultiamine Hydrochloride]", "values": [
      {"measurement": "fold induction at 50 µM", "setting": "E. faecium; Enterococcus faecium, 3 h, read-out: AK-based Prestwick library screening result, E. faecium (fold increase in extracellular AK activity)", "result": 1.1},
      {"measurement": "fold induction at 50 µM", "setting": "[1]; Staphylococcus aureus, USA300, 3 h, read-out: AK-based Prestwick library screening result, S. aureus (fold increase in extracellular AK activity)", "result": 1},
      {"measurement": "fold induction at 50 µM", "setting": "K. pneumoniae; Klebsiella pneumoniae, 3 h, read-out: AK-based Prestwick library screening result, K. pneumoniae (fold increase in extracellular AK activity)", "result": 1},
      {"measurement": "fold induction at 50 µM", "setting": "[2]; Acinetobacter baumannii, 983709, 3 h, read-out: AK-based Prestwick library screening result, A. baumannii (fold increase in extracellular AK activity)", "result": 1.3},
      {"measurement": "fold induction at 50 µM", "setting": "P. aeruginosa; Pseudomonas aeruginosa, 3 h, read-out: AK-based Prestwick library screening result, P. aeruginosa (fold increase in extracellular AK activity)", "result": 1.1},
      {"measurement": "fold induction at 50 µM", "setting": "E. cloacae; Enterobacter cloacae, 3 h, read-out: AK-based Prestwick library screening result, E. cloacae (fold increase in extracellular AK activity)", "result": 1.2},
      {"measurement": "fold induction at 50 µM", "setting": "E. coli; Escherichia coli, 3 h, read-out: AK-based Prestwick library screening result, E. coli (fold increase in extracellular AK activity)", "result": 1.4}
    ]},
    {"smiles": "CC(=O)NC1[C@@H](O)OC(CO)[C@@H](O)[C@H]1O[C@H](C)C(=O)O", "note": "(stereo in doubt) [Muramic acid, N-acetyl]", "values": [
      {"measurement": "AK-based Prestwick Library Screening Results, E. faecium (fold increase in extracellular AK activity)", "setting": "E. faecium; [3]", "result": 1.0},
      {"measurement": "AK-based Prestwick Library Screening Results, S. aureus (fold increase in extracellular AK activity)", "setting": "[1]; [3]", "result": 1.0},
      {"measurement": "AK-based Prestwick Library Screening Results, K. pneumoniae (fold increase in extracellular AK activity)", "setting": "K. pneumoniae; [3]", "result": 1.0},
      {"measurement": "AK-based Prestwick Library Screening Results, A. baumannii (fold increase in extracellular AK activity)", "setting": "[2]; [3]", "result": 1.5},
      {"measurement": "AK-based Prestwick Library Screening Results, P. aeruginosa (fold increase in extracellular AK activity)", "setting": "P. aeruginosa; [3]", "result": 1.1},
      {"measurement": "AK-based Prestwick Library Screening Results, E. cloacae (fold increase in extracellular AK activity)", "setting": "E. cloacae; [3]", "result": 1.4},
      {"measurement": "AK-based Prestwick Library Screening Results, E. coli (fold increase in extracellular AK activity)", "setting": "E. coli; [3]", "result": 1.1}
    ]},
    {"smiles": "CC(C)NC[C@@H](O)c1ccc(O)c(O)c1.O=C(O)C(O)C(O)C(=O)O", "note": "[(+)-Isoproterenol (+)-bitartrate salt]", "values": [
      {"measurement": "AK-based Prestwick Library Screening Results, E. faecium (fold increase in extracellular AK activity)", "setting": "E. faecium; [4]", "result": 0.9},
      {"measurement": "AK-based Prestwick Library Screening Results, S. aureus (fold increase in extracellular AK activity)", "setting": "[1]; [4]", "result": 0.8},
      {"measurement": "AK-based Prestwick Library Screening Results, K. pneumoniae (fold increase in extracellular AK activity)", "setting": "K. pneumoniae; [4]", "result": 1.0},
      {"measurement": "AK-based Prestwick Library Screening Results, A. baumannii (fold increase in extracellular AK activity)", "setting": "[2]; [4]", "result": 0.8},
      {"measurement": "AK-based Prestwick Library Screening Results, P. aeruginosa (fold increase in extracellular AK activity)", "setting": "P. aeruginosa; [4]", "result": 0.8},
      {"measurement": "AK-based Prestwick Library Screening Results, E. cloacae (fold increase in extracellular AK activity)", "setting": "E. cloacae; [4]", "result": 1.4},
      {"measurement": "AK-based Prestwick Library Screening Results, E. coli (fold increase in extracellular AK activity)", "setting": "E. coli; [4]", "result": 0.9}
    ]},
    {"smiles": "CC(C)(C)NC[C@@H](O)COc1cccc2c1CCCC2=O.Cl", "note": "[(+)-Levobunolol hydrochloride]", "values": [
      {"measurement": "AK-based Prestwick Library Screening Results, E. faecium (fold increase in extracellular AK activity)", "setting": "E. faecium; [5]", "result": 0.9},
      {"measurement": "AK-based Prestwick Library Screening Results, S. aureus (fold increase in extracellular AK activity)", "setting": "[1]; [5]", "result": 1.3},
      {"measurement": "AK-based Prestwick Library Screening Results, K. pneumoniae (fold increase in extracellular AK activity)", "setting": "K. pneumoniae; [5]", "result": 0.9},
      {"measurement": "AK-based Prestwick Library Screening Results, A. baumannii (fold increase in extracellular AK activity)", "setting": "[2]; [5]", "result": 0.9},
      {"measurement": "AK-based Prestwick Library Screening Results, P. aeruginosa (fold increase in extracellular AK activity)", "setting": "P. aeruginosa; [5]", "result": 1.2},
      {"measurement": "AK-based Prestwick Library Screening Results, E. cloacae (fold increase in extracellular AK activity)", "setting": "E. cloacae; [5]", "result": 1.5},
      {"measurement": "AK-based Prestwick Library Screening Results, E. coli (fold increase in extracellular AK activity)", "setting": "E. coli; [5]", "result": 1.2}
    ]},
    {"smiles": "CC(C)NC[C@@H](O)COc1ccc(CC(N)=O)cc1", "note": "[(R)-(+)-Atenolol]", "values": [
      {"measurement": "AK-based Prestwick Library Screening Results, E. faecium (fold increase in extracellular AK activity)", "setting": "E. faecium; [5]", "result": 1.0},
      {"measurement": "AK-based Prestwick Library Screening Results, S. aureus (fold increase in extracellular AK activity)", "setting": "[1]; [5]", "result": 1.2},
      {"measurement": "AK-based Prestwick Library Screening Results, K. pneumoniae (fold increase in extracellular AK activity)", "setting": "K. pneumoniae; [5]", "result": 1.2},
      {"measurement": "AK-based Prestwick Library Screening Results, A. baumannii (fold increase in extracellular AK activity)", "setting": "[2]; [5]", "result": 1.3},
      {"measurement": "AK-based Prestwick Library Screening Results, P. aeruginosa (fold increase in extracellular AK activity)", "setting": "P. aeruginosa; [5]", "result": 1.2},
      {"measurement": "AK-based Prestwick Library Screening Results, E. cloacae (fold increase in extracellular AK activity)", "setting": "E. cloacae; [5]", "result": 1.3},
      {"measurement": "AK-based Prestwick Library Screening Results, E. coli (fold increase in extracellular AK activity)", "setting": "E. coli; [5]", "result": 1.3}
    ]},
    {"smiles": "COc1ccc2cc([C@@H](C)C(=O)[O-])ccc2c1.[Na+]", "note": "[(R)-Naproxen sodium salt]", "values": [
      {"measurement": "AK-based Prestwick Library Screening Results, E. faecium (fold increase in extracellular AK activity)", "setting": "E. faecium; [5]", "result": 1.0},
      {"measurement": "AK-based Prestwick Library Screening Results, S. aureus (fold increase in extracellular AK activity)", "setting": "[1]; [5]", "result": 1.0},
      {"measurement": "AK-based Prestwick Library Screening Results, K. pneumoniae (fold increase in extracellular AK activity)", "setting": "K. pneumoniae; [5]", "result": 1.0},
      {"measurement": "AK-based Prestwick Library Screening Results, A. baumannii (fold increase in extracellular AK activity)", "setting": "[2]; [5]", "result": 1.1},
      {"measurement": "AK-based Prestwick Library Screening Results, P. aeruginosa (fold increase in extracellular AK activity)", "setting": "P. aeruginosa; [5]", "result": 1.0},
      {"measurement": "AK-based Prestwick Library Screening Results, E. cloacae (fold increase in extracellular AK activity)", "setting": "E. cloacae; [5]", "result": 1.7},
      {"measurement": "AK-based Prestwick Library Screening Results, E. coli (fold increase in extracellular AK activity)", "setting": "E. coli; [5]", "result": 1.1}
    ]},
    {"smiles": "CC(C)NC[C@@H](O)COc1cccc2ccccc12.Cl", "note": "[(R)-Propranolol hydrochloride]", "values": [
      {"measurement": "AK-based Prestwick library screening result, E. faecium (fold increase in extracellular AK activity)", "setting": "E. faecium; planktonic E. faecium, 50 μM final drug concentration, positive cutoff 3-fold increase", "result": 0.9},
      {"measurement": "AK-based Prestwick library screening result, S. aureus (fold increase in extracellular AK activity)", "setting": "[1]; planktonic S. aureus, 50 μM final drug concentration, positive cutoff 3-fold increase", "result": 0.8},
      {"measurement": "AK-based Prestwick library screening result, K. pneumoniae (fold increase in extracellular AK activity)", "setting": "K. pneumoniae; planktonic K. pneumoniae, 50 μM final drug concentration, positive cutoff 3-fold increase", "result": 0.7},
      {"measurement": "AK-based Prestwick library screening result, A. baumannii (fold increase in extracellular AK activity)", "setting": "[2]; planktonic A. baumannii, 50 μM final drug concentration, positive cutoff 3-fold increase", "result": 0.9},
      {"measurement": "AK-based Prestwick library screening result, P. aeruginosa (fold increase in extracellular AK activity)", "setting": "P. aeruginosa; planktonic P. aeruginosa, 50 μM final drug concentration, positive cutoff 3-fold increase", "result": 0.8},
      {"measurement": "AK-based Prestwick library screening result, E. cloacae (fold increase in extracellular AK activity)", "setting": "E. cloacae; planktonic E. cloacae, 50 μM final drug concentration, positive cutoff 3-fold increase", "result": 17.3},
      {"measurement": "AK-based Prestwick library screening result, E. coli (fold increase in extracellular AK activity)", "setting": "E. coli; planktonic E. coli, 50 μM final drug concentration, positive cutoff 3-fold increase", "result": 0.8}
    ]}
  ]
}
